According to patent publication US10202361B2, “Pyridazinones as herbicides” (E I DU PONT DE NEMOURS AND COMPANY, priority 2014, dated 2019):

Assays:
Assay in all cases: Test C pre-/postemergence greenhouse herbicide test
Format in all cases: in vivo
[1] = system: ragweed (common ragweed, Ambrosia elatior); details: Preemergence; for pest or weed control at 31 g/ha: 31 g ai/ha; for pest or weed control at 62 g/ha: 62 g ai/ha; for Plant response rating, Ragweed: visual rating on scale 0 (no effect) to 100 (complete control), 13 to 15 d
In short: (§1)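 Greenhouse pre- and postemergence screen: compounds in a non-phytotoxic solvent mix plus surfactant were applied to soil/sand-sown seeds or to 1- to 4-leaf plants. Visual rating 13–15 d later, 0 (no effect) to 100 (complete control).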

[2] = system: morningglory (Ipomoea coccinea); details: Preemergence; for Plant response rating: Morningglory; for Plant response rating, Morningglory: visual rating on scale 0 (no effect) to 100 (complete control), 13 to 15 d
In short: as §1

[3] = system: waterhemp (common waterhemp, Amaranthus rudis); details: Preemergence; for Plant response rating, Waterhemp: visual rating on scale 0 (no effect) to 100 (complete control), 13 to 15 d; for Plant response rating: Waterhemp
In short: as §1

[4] = system: corn (Zea mays); details: Preemergence; for Plant response rating, Corn: visual rating on scale 0 (no effect) to 100 (complete control), 13 to 15 d; for plant injury at 31 g/ha: 31 g ai/ha; for plant injury at 62 g/ha: 62 g ai/ha
In short: as §1

[5] = system: soybean (Glycine max); details: Preemergence; for plant injury at 62 g/ha: 62 g ai/ha; for Plant response rating, Soybean: visual rating on scale 0 (no effect) to 100 (complete control), 13 to 15 d
In short: as §1

[6] = system: ryegrass, Italian (Italian ryegrass, Lolium multiflorum); details: Preemergence; for pest or weed control at 31 g/ha: 31 g ai/ha; for pest or weed control at 62 g/ha: 62 g ai/ha; for Plant response rating, Ryegrass, Italian: visual rating on scale 0 (no effect) to 100 (complete control), 13 to 15 d
In short: as §1

[7] = system: wheat (winter wheat, Triticum aestivum); details: Preemergence; for Plant response rating, Wheat: visual rating on scale 0 (no effect) to 100 (complete control), 13 to 15 d; for plant injury at 62 g/ha: 62 g ai/ha
In short: as §1

[8] = system: pigweed (Amaranthus retroflexus); details: Preemergence; for pest or weed control at 31 g/ha: 31 g ai/ha; for pest or weed control at 62 g/ha: 62 g ai/ha; for Plant response rating, Pigweed: visual rating on scale 0 (no effect) to 100 (complete control), 13 to 15 d
In short: as §1

[9] = system: crabgrass, Large (large crabgrass, Digitaria sanguinalis); details: Preemergence; for pest or weed control at 31 g/ha: 31 g ai/ha; for pest or weed control at 62 g/ha: 62 g ai/ha; for Plant response rating, Crabgrass, Large: visual rating on scale 0 (no effect) to 100 (complete control), 13 to 15 d
In short: as §1

[10] = system: blackgrass (Alopecurus myosuroides); details: Preemergence; for pest or weed control at 31 g/ha: 31 g ai/ha; for pest or weed control at 62 g/ha: 62 g ai/ha; for Plant response rating, Blackgrass: visual rating on scale 0 (no effect) to 100 (complete control), 13 to 15 d
In short: as §1

[11] = system: lambsquarters (Chenopodium album); details: Preemergence
In short: as §1

[12] = Ambrosia artemisiifolia, pre-emergence, Ragweed, read-out: Plant response rating
[13] = Zea mays, pre-emergence, Corn, read-out: Plant response rating
[14] = Glycine max, pre-emergence, Soybean, read-out: Plant response rating
[15] = Lolium multiflorum, pre-emergence, Ryegrass, Italian, read-out: Plant response rating
[16] = Triticum aestivum, pre-emergence, Wheat, read-out: Plant response rating
[17] = Amaranthus retroflexus, pre-emergence, Pigweed, read-out: Plant response rating
[18] = Digitaria sanguinalis, pre-emergence, Crabgrass, Large, read-out: Plant response rating
[19] = Alopecurus myosuroides, pre-emergence, Blackgrass, read-out: Plant response rating

**Q.** What does the source list for `CCOc1cc(=O)n(-c2ccc(F)cc2)nc1C(O)c1ccnc(C(F)(F)F)c1` (stereo not drawn) [Compound 23, 5-ethoxy-2-(4-fluorophenyl)-6-[hydroxy[2-(trifluoromethyl)-4-pyridinyl]methyl]-3(2H)-pyridazinone]?
**A.** pest or weed control at 31 g/ha [1, 12]: 60%; pest or weed control at 62 g/ha [1, 12]: 55%; Plant response rating, Ragweed ([1]; 8 g ai/ha): 0; Plant response rating, Ragweed ([1]; 16 g ai/ha): 60; Plant response rating ([2]; 31 g ai/ha): 55; Plant response rating ([2]; 62 g ai/ha): 98; Plant response rating, Morningglory ([2]; 8 g ai/ha): 10; Plant response rating, Morningglory ([2]; 16 g ai/ha): 20; Plant response rating, Waterhemp ([3]; 8 g ai/ha): 85; Plant response rating, Waterhemp ([3]; 16 g ai/ha): 100; Plant response rating ([3]; 62 g ai/ha): 100; Plant response rating, Corn ([4]; 8 g ai/ha): 0; Plant response rating, Corn ([4]; 16 g ai/ha): 5; plant injury at 31 g/ha [4, 13]: 5%; plant injury at 62 g/ha [4, 13]: 15%; plant injury at 62 g/ha [5, 14]: 25%; Plant response rating, Soybean ([5]; 8 g ai/ha): 0; Plant response rating, Soybean ([5]; 16 g ai/ha): 0; pest or weed control at 31 g/ha [6, 15]: 0%; pest or weed control at 62 g/ha [6, 15]: 5%; Plant response rating, Ryegrass, Italian ([6]; 8 g ai/ha): 0; Plant response rating, Ryegrass, Italian ([6]; 16 g ai/ha): 0; Plant response rating, Wheat ([7]; 8 g ai/ha): 0; Plant response rating, Wheat ([7]; 16 g ai/ha): 0; plant injury at 62 g/ha [7, 16]: 10%; pest or weed control at 31 g/ha [8, 17]: 100%; pest or weed control at 62 g/ha [8, 17]: 100%; Plant response rating, Pigweed ([8]; 8 g ai/ha): 98; Plant response rating, Pigweed ([8]; 16 g ai/ha): 100; pest or weed control at 31 g/ha [9, 18]: 65%; pest or weed control at 62 g/ha [9, 18]: 100%; Plant response rating, Crabgrass, Large ([9]; 8 g ai/ha): 5; Plant response rating, Crabgrass, Large ([9]; 16 g ai/ha): 50; pest or weed control at 31 g/ha [10, 19]: 50%; pest or weed control at 62 g/ha [10, 19]: 5%; Plant response rating, Blackgrass ([10]; 8 g ai/ha): 0; Plant response rating, Blackgrass ([10]; 16 g ai/ha): 0

**Q.** What does the source list for `CCOc1cc(=O)n(-c2ccc(F)cc2)nc1Cc1ccnc(C(F)(F)F)c1` [Compound 25, 5-ethoxy-2-(4-fluorophenyl)-6-[[2-(trifluoromethyl)-4-pyridinyl]methyl]-3 (2H)-pyridazinone]?
**A.** pest or weed control at 31 g/ha [1, 12]: 60%; pest or weed control at 62 g/ha [1, 12]: 85%; pest or weed control at 125 g/ha ([1]; Ambrosia artemisiifolia, pre-emergence, Ragweed, 125 g ai/ha, read-out: Plant response rating): 65%; pest or weed control at 250 g/ha ([1]; Ambrosia artemisiifolia, pre-emergence, Ragweed, 250 g ai/ha, read-out: Plant response rating): 95%; Plant response rating ([2]; 31 g ai/ha): 95; Plant response rating ([2]; 62 g ai/ha): 95; Plant response rating ([2]; 125 g ai/ha): 100; Plant response rating ([2]; 250 g ai/ha): 98; Plant response rating ([3]; 62 g ai/ha): 100; Plant response rating ([3]; 125 g ai/ha): 100; Plant response rating ([3]; 250 g ai/ha): 100; plant injury at 31 g/ha [4, 13]: 10%; plant injury at 62 g/ha [4, 13]: 30%; plant injury at 125 g/ha ([4]; Zea mays, pre-emergence, Corn, 125 g ai/ha, read-out: Plant response rating): 35%; plant injury at 250 g/ha ([4]; Zea mays, pre-emergence, Corn, 250 g ai/ha, read-out: Plant response rating): 45%; plant injury at 62 g/ha [5, 14]: 20%; plant injury at 125 g/ha ([5]; Glycine max, pre-emergence, Soybean, 125 g ai/ha, read-out: Plant response rating): 35%; plant injury at 250 g/ha ([5]; Glycine max, pre-emergence, Soybean, 250 g ai/ha, read-out: Plant response rating): 65%; pest or weed control at 31 g/ha [6, 15]: 20%; pest or weed control at 62 g/ha [6, 15]: 40%; pest or weed control at 125 g/ha ([6]; Lolium multiflorum, pre-emergence, Ryegrass, Italian, 125 g ai/ha, read-out: Plant response rating): 90%; pest or weed control at 250 g/ha ([6]; Lolium multiflorum, pre-emergence, Ryegrass, Italian, 250 g ai/ha, read-out: Plant response rating): 90%; plant injury at 62 g/ha [7, 16]: 40%; plant injury at 125 g/ha ([7]; Triticum aestivum, pre-emergence, Wheat, 125 g ai/ha, read-out: Plant response rating): 50%; plant injury at 250 g/ha ([7]; Triticum aestivum, pre-emergence, Wheat, 250 g ai/ha, read-out: Plant response rating): 70%; pest or weed control at 31 g/ha [8, 17]: 100%; pest or weed control at 62 g/ha [8, 17]: 100%; pest or weed control at 125 g/ha ([8]; Amaranthus retroflexus, pre-emergence, Pigweed, 125 g ai/ha, read-out: Plant response rating): 98%; pest or weed control at 250 g/ha ([8]; Amaranthus retroflexus, pre-emergence, Pigweed, 250 g ai/ha, read-out: Plant response rating): 100%; Plant response rating ([11]; 31 g ai/ha): 100; Plant response rating ([11]; 62 g ai/ha): 100; Plant response rating ([11]; 125 g ai/ha): 100; Plant response rating ([11]; 250 g ai/ha): 100; pest or weed control at 31 g/ha [9, 18]: 100%; pest or weed control at 62 g/ha [9, 18]: 100%; pest or weed control at 125 g/ha ([9]; Digitaria sanguinalis, pre-emergence, Crabgrass, Large, 125 g ai/ha, read-out: Plant response rating): 100%; pest or weed control at 250 g/ha ([9]; Digitaria sanguinalis, pre-emergence, Crabgrass, Large, 250 g ai/ha, read-out: Plant response rating): 100%; pest or weed control at 31 g/ha [10, 19]: 40%; pest or weed control at 62 g/ha [10, 19]: 85%; pest or weed control at 125 g/ha ([10]; Alopecurus myosuroides, pre-emergence, Blackgrass, 125 g ai/ha, read-out: Plant response rating): 90%; pest or weed control at 250 g/ha ([10]; Alopecurus myosuroides, pre-emergence, Blackgrass, 250 g ai/ha, read-out: Plant response rating): 90%
